Assay results from PMC9223062, “Purification and Characterization of a Dark Red Skin Related Dimeric Polyphenol Oxidase from Huaniu Apples” (Foods, 2022).
Each block holds one compound with its values, some of them ahead of it.

Tests used:
[1] = system: T1, dimeric PPO from Huaniu apple peel; assay: spectrophotometric oxidation assay, Lineweaver-Burk; format: biochemical, Malus domestica; settings: pH 5.0 citrate phosphate buffer, 25 °C
T1 construct: gene PPO2; native, purified from fruit peel (ammonium sulfate, DEAE-sepharose, Sephadex G-200); soluble PPO; about 140 kDa by native-PAGE and SDS-PAGE, 61 kDa monomer by urea-SDS-PAGE, homodimer
Excerpt: spectrophotometric oxidation assay, Lineweaver-Burk on dimeric PPO from Huaniu apple peel

[2] = system: T1, dimeric PPO from Huaniu apple peel; assay: spectrophotometric oxidation assay at […] nm, Lineweaver-Burk; format: biochemical, Malus domestica; settings: pH 5.0 citrate phosphate buffer, 25 °C; abstract 1.17, b44 prints 1.16

SMILES: Cc1ccc(O)c(O)c1 [4-methylcatechol]
Km [1]: 2470 µM

SMILES: Oc1cc(O)c2c(c1)O[C@H](c1ccc(O)c(O)c1)[C@@H](O)C2 [CT, (+)-catechin]
Km [1]: 4630 µM

SMILES: Oc1ccccc1O [catechol]
Km ([1]; text prints 0.60): 610 µM

Second part, the compound after the results:

Km [2]: 1170 µM
SMILES: Oc1cc(O)c2c(c1)O[C@H](c1ccc(O)c(O)c1)[C@H](O)C2 [EC, (−)-epicatechin]

Km ([1]; text b44 prints 1.29, table value agrees with its Vmax/Km): 2220 µM
SMILES: O=C(/C=C/c1ccc(O)c(O)c1)O[C@@H]1C[C@](O)(C(=O)O)C[C@@H](O)[C@H]1O [chlorogenic acid]
